Each structure is given as a SMILES string.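 These data come from cells grown in 96-well plates and exposed to compound for 48 hours at five concentrations. At the GI50, growth is halved. Definition used: TGI = concentration required for complete inhibition of growth.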 Where only a bound is given, the exact number is not on record here.

In PubChem BioAssay (NCI) one finds GI50 and TGI data, which are given here for 14 compounds.

What all share (assay): NCI-60 cell line screen, 48 h
In test [1] the test system is KM12 colon.
Test [2] deals with OVCAR-3 ovarian.
Test [3] relates to HCT-116 colon.
Test [4] relates to HCC-2998 colon.
The test system of test [5] is OVCAR-5 ovarian.
The test system of test [6] is SW-620 colon.
Test [7] concerns TK-10 renal.
In test [8] the test system is A498 renal.
Test [9] concerns CCRF-CEM leukemia.
For test [10], the system named is BT-549 breast.

Regarding `CC[C@@H](C(=O)[C@@H](C)[C@@H](O)[C@H](C)[C@@H]1O[C@@H]([C@@H](CC)C(=O)N(CC)CC)CC[C@@H]1C)C1O[C@]2(C=CC(=O)[C@]3(CC[C@@](C)([C@H]4CC[C@](O)(CC)[C@H](C)O4)O3)O2)[C@H](C)C[C@@H]1C` (some centres undefined), the GI50 in test [1] was 1820 nM; in test [2], 2.34 µM; in test [3], 3180 nM; in test [4], 1.97 µM; in test [5] it was 2.85 µM; in test [6] it was 3110 nM. Also, the GI50 is 3.49 µM in test [7], 2.25 µM in [8], 3.01 µM in test [9] and 3.29 µM in test [10]. Further, the TGI in [1] stood at 3.68 µM; in test [2], 6.49 µM; in test [3], 17.4 µM; in test [4] it was 4.79 µM; in test [5] it was 10.1 µM; in [6], 23.5 µM. Moreover, the TGI in test [7] was more than 100 µM; in test [8], 7.51 µM; in test [9] it was 14.4 µM; in test [10] it was 61.9 µM.
Turning to `COc1cc(O)c(C(=O)/C=C/c2ccc(O)cc2)c(O)c1[C@@H]1C[C@H](CCc2ccc(O)cc2)O[C@H](c2ccc(O)cc2)C1`, the GI50 was 2510 nM in test [1]; 4.18 µM in [2]; 3740 nM in [3]; 2.25 µM in test [4]; 7.53 µM in test [5]; 2230 nM in test [6]. Moreover, the GI50 in [7] was 4.55 µM; in test [8], 14 µM; in [9], 3.28 µM; in test [10], 4.36 µM. Moreover, the TGI in test [1] came out at 6.64 µM; in test [2], 21 µM; in [3] it was 11.1 µM; in test [4], 4.02 µM; in [5], 19.9 µM; in test [6], 4.91 µM. The TGI in test [7] stood at 17.1 µM; in test [8], 28.1 µM; in [9], 10.6 µM; in test [10], 17.6 µM.
Consider `O=C(NP(=O)(N1CC1)N1CC1)c1cc(I)ccc1I`, for which the TGI in test [1] is more than 100 µM; in test [2], 86.6 µM; in test [3], more than 100 µM; in test [4] it was more than 100 µM; in test [5] it was more than 100 µM; in [6], more than 100 µM. Also, the TGI in test [7] was more than 100 µM; in test [8], more than 100 µM; in test [9], more than 78.8 µM; in test [10], more than 100 µM.
As for `COc1cc(C2=C(C#Cc3ccccc3)COC2=O)cc(OC)c1OC`, the GI50 in test [1] is 1870 nM; in test [2], 2.1 µM; in test [3], 690 nM; in [4], 12.4 µM; in test [5], 7.89 µM; in test [6], 755 nM. Besides, the GI50 was 1.9 µM in test [7], 41.1 µM in [8], 3.39 µM in [9] and 3.26 µM in test [10]. For the same compound, the TGI was 10.5 µM in [1]; 16.8 µM in [2]; 4.01 µM in [3]; 25.8 µM in [4]; more than 57.9 µM in [5]; 5.97 µM in test [7]. In addition, the TGI is more than 100 µM in [8], 59.3 µM in test [9] and 63.1 µM in test [10].
On to `COc1cc2c3c(n(CCCI)c(=O)c2cc1OC)-c1cc2c(cc1C3=O)OCO2`, for which the GI50 in test [1] is 7400 nM; in test [2], 11.2 µM; in test [3] it was 2600 nM; in test [4] it was 5.61 µM; in test [5], more than 100 µM; in test [6], 3170 nM. In addition, the GI50 was 14.7 µM in test [7], 6.79 µM in test [8], 0.873 µM in [9] and 1.82 µM in test [10]. For the same compound, the TGI in test [1], in test [2], in test [3], in test [4], in test [5] and in test [6] was more than 100 µM throughout. Moreover, the TGI was 57 µM in test [7], more than 100 µM in [8], more than 100 µM in [9] and 9.44 µM in [10].
Take `COc1ccc2c(c1)C(=O)c1c-2c(Nc2ccc(Cl)cc2)nc2ccccc12`: the GI50 in test [1] is 50000 nM; in test [2] it was 33.6 µM; in [3], 5030 nM; in [4], 22.1 µM; in test [5], 22.3 µM; in test [6] it was 23800 nM. Also, the GI50 in test [7] is 14.3 µM; in test [8], 5.01 µM; in test [9], 32 µM; in [10], 8.46 µM. Moreover, the TGI was more than 100 µM in test [1]; more than 100 µM in test [2]; 24 µM in test [3]; more than 100 µM in test [4]; 84.1 µM in test [5]; more than 100 µM in test [6]. The TGI was 34.3 µM in [7], 18.9 µM in test [8], more than 100 µM in [9] and 27.7 µM in [10].
`Nc1nc(-c2ccccc2)nc(N)c1N=O`: the GI50 in test [1] is 4580 nM; in test [2] it was 4.17 µM; in test [3] it was 4120 nM; in test [4] it was 14.1 µM; in [5], 13.7 µM; in test [6], 2000 nM. Besides, the GI50 in test [7] was 4.68 µM; in test [8], 15.6 µM; in test [9], 5.8 µM; in test [10], 6.44 µM. For the same compound, the TGI came to 16.9 µM in test [1]; 14 µM in [2]; 17.8 µM in test [3]; 27.6 µM in test [4]; 26.8 µM in test [5]; 5.77 µM in [6]. In addition, the TGI is 14.8 µM in test [7], 30.6 µM in test [8], more than 100 µM in test [9] and 19.1 µM in test [10].
As for `COc1ccc(Nc2c3ccccc3nc3ccccc23)cc1`, the GI50 in [1] is 1330 nM; in [2] it was 1.43 µM; in [3] it was 576 nM; in test [4], 1.92 µM; in test [5], 6.15 µM; in test [6], 599 nM. Further, the GI50 in [7] was 2.78 µM; in [8] it was 0.421 µM; in [9] it was 1.17 µM; in [10] it was 5.99 µM. The TGI stood at 15 µM in test [1]; 5.78 µM in [2]; 11.5 µM in test [3]; 11.2 µM in [4]; 23 µM in [5]; 14.4 µM in [6]. The TGI in [7] stood at 13.7 µM; in test [8], 10.5 µM; in test [9], 10.7 µM; in [10], 23.6 µM.
`CC1(C)[C@@H](O[C@@H]2OC[C@@H](O[C@@H]3O[C@H](CO)[C@@H](O)[C@H](O)[C@H]3O[C@@H]3OC[C@@H](O)[C@H](O)[C@H]3O)[C@H](O)[C@H]2O[C@@H]2O[C@H](CO)[C@@H](O)[C@H](O)[C@H]2O)CC[C@]2(C)[C@H]3CC[C@]45OC[C@@]6(CC[C@](C)(C=O)C[C@H]64)[C@H](O)C[C@@]5(C)[C@]3(C)CC[C@@H]12`: the GI50 was 1210 nM in [1]; 1.01 µM in test [2]; 898 nM in test [3]; 0.931 µM in [4]; 0.834 µM in test [5]; 969 nM in [6]. For the same compound, the GI50 in test [7] was 0.945 µM; in test [8] it was 0.825 µM; in test [9], 1.02 µM; in test [10], 1.14 µM. The TGI in [1] was 3.17 µM; in test [2] it was 2.06 µM; in test [3], 1.91 µM; in [4], 1.75 µM; in test [5], 1.66 µM; in test [6] it was 2.04 µM. Besides, the TGI in test [7] was found to be 1.83 µM; in [8] it was 1.53 µM; in [9] it was 3.13 µM; in [10] it was 3.37 µM.
With `CCNC(=O)c1cc2c(-c3cc(C(C)(C)O)ccc3Oc3c(C)cc(F)cc3C)cn(C)c(=O)c2[nH]1`, the GI50 in test [1] is 1870 nM; in test [2] it was 1.93 µM; in test [3] it was 1320 nM; in [4] it was 1.66 µM; in test [5] it was 1.63 µM; in test [6], 3560 nM. Further, the GI50 is 0.298 µM in [7], 0.898 µM in test [8], 2.21 µM in test [9] and 2.01 µM in [10]. Moreover, the TGI stood at 15.8 µM in test [1]; 11.9 µM in test [2]; 12.5 µM in [3]; 4.03 µM in [4]; 16.2 µM in test [5]; 21 µM in test [6]. Also, the TGI in test [7] came to 10.6 µM; in [8], 4.84 µM; in test [9], 23.9 µM; in test [10] it was 11.4 µM.
As for `Cn1ccnc1C(=O)/C=C/c1ccccc1`, the GI50 in test [1] was 3060 nM; in test [2], 3.22 µM; in test [3], 2720 nM; in [4], 2.36 µM; in test [5], 13.7 µM; in test [6], 3580 nM. The GI50 in [7] was 5.83 µM; in test [8], 5.05 µM; in test [9], 2.7 µM; in [10] it was 3.63 µM. Further, the TGI stood at 12.5 µM in test [1]; 8.5 µM in test [2]; 12.2 µM in test [3]; 5.38 µM in test [4]; 27.8 µM in [5]; 12.4 µM in test [6]. For the same compound, the TGI in [7] turned out to be 19.1 µM; in test [8], 17 µM; in test [9], 7.17 µM; in [10] it was 8.48 µM.
In the case of `N#Cc1c(N)nc(N2CCOCC2)c(C#N)c1-c1cccnc1`, the GI50 in [1] is more than 100000 nM; in test [2], 26.6 µM; in [3] it was 86600 nM; in [4], 8.8 µM; in test [5] it was 25.7 µM; in test [6] it was more than 100000 nM. The GI50 in test [7] was more than 100 µM; in [8], 27.5 µM; in test [9], 39.3 µM; in test [10], more than 100 µM. For the same compound, the TGI was more than 100 µM in test [1]; 89.7 µM in [2]; more than 100 µM in test [3]; 49.4 µM in [4]; 73.5 µM in [5]; more than 100 µM in test [6]. Further, the TGI was more than 100 µM in test [7], 80.8 µM in test [8], more than 100 µM in [9] and more than 100 µM in [10].
Regarding `N#CSCC1CC(O)(c2ccccc2)CC(c2ccc(F)cc2)O1` (centres undefined), the GI50 was 1630 nM in test [1]; 1.45 µM in [2]; 1630 nM in [3]; 4.02 µM in [4]; 2.32 µM in test [5]; 2070 nM in test [6]. The GI50 in test [7] was 2.07 µM; in [8] it was 1.9 µM; in test [9], 1.72 µM; in [10] it was 1.94 µM. The TGI in test [1] was determined as 3.07 µM; in test [2], 2.76 µM; in test [3], 2.98 µM; in test [4], 17.6 µM; in [5] it was 5.28 µM; in test [6], 3.74 µM. Moreover, the TGI in [7] stood at 5.77 µM; in [8] it was 4.1 µM; in [9], 6.08 µM; in [10], 4.31 µM.
For the compound `NC(=O)c1cc(-c2ccc(F)cc2)cc(-c2ccncc2)c1N`, the GI50 in test [1] is more than 25000 nM; in [2], more than 25 µM; in test [3] it was more than 25000 nM; in [4], more than 25 µM; in test [5] it was more than 25 µM; in test [6], more than 25000 nM. Also, the GI50 in test [7] was more than 25 µM; in test [8], 4.17 µM; in [9], more than 25 µM; in test [10], more than 25 µM. The TGI in [1], in [2], in [3], in test [4], in test [5] and in test [6] was more than 25 µM in each case. Also, the TGI was more than 25 µM in test [7], more than 23.6 µM in test [8], more than 25 µM in test [9] and more than 25 µM in [10].
